Measurements published in paper PMC11605291 (Frontiers in Pharmacology, 2024).
Like-named read-outs stand apart in the source and are kept apart here.

Key:
[1] = Plasma pharmacokinetics of amdizalisib (LC-MS/MS) after a single oral dose of [14C]amdizalisib suspension; assay type: in vivo, human; conditions: for CL/F: amdizalisib in plasma, single oral 30 mg/100 µCi suspension, mean ± SD
Description: (§1) Six subjects were admitted to the clinical research center 1 day prior to dosing, with random urine and fecal samples collected as blank excretion controls. After fasting overnight for at least 10 h, a blank blood sample was collected after a regular breakfast (449 kcal, with ∼35% energy from fat) on Day 1. […] It is noteworthy that the medication administration duration for each subject was strictly kept within 10 min. Scheduled collection of urine, feces, and blood samples, and safety monitoring proceeded until completion.
(§2) Venous blood samples were collected within 0.5 h prior to administration and at 0.5, 1, 1.5, 2, 3, 4, 6, 8, 12, 24, 36, 48, 72, and 96 h after administration. About 8 mL of blood was collected at each time point in the anticoagulant collection tube containing K2-EDTA. The centrifuged plasma was used for non-radioactive and radioactive pharmacokinetic and biotransformation (metabolite) analyses. In addition, about 2 mL of venous blood was collected within 0.5 h before administration and at 1, 4, 8, 12, 24, and 48 h after administration for whole blood radioactivity analysis. Additional 10 mL of venous blood for each time point was collected at 1, 4, 8, 12, 24, and 48 h after administration, and the plasma was obtained by centrifugation for biotransformation (metabolites) analysis. Urine and fecal samples were collected until 144 h (4 subjects) or 192 h (2 subjects) after administration.
Chromatographic separation was achieved on an XBridge C18 column, maintained at 40°C, with a mobile phase consisting of 2 mM ammonium formate in water (A) and methanol (B). A gradient elution was employed at a flow rate of 0.6 mL/min. The autosampler was set to 5°C, with an injection volume of 5 μL. […] Each analytical run included calibration standards and quality control samples to ensure method accuracy and precision. The corrected total concentration data of labelled (^14C) and unlabeled (^12C) analytes were given directly by Analyst data processing software. The standard curve consists of 0.500, 1.00, 2.00, 10.0, 50.0, 200, 450, 500 ng/mL. The quality control (QC) sample concentrations were 0.5 (lower limit of quantification QC), 1.50 (lower QC), 20.0 (low to medium QC), 250 (medium QC), 400 (high QC) ng/mL, respectively.
Pharmacokinetic analysis was performed using Phoenix WinNonlin® software version 8.3. […] Non-compartmental model was used to estimate the main PK parameters. Descriptive statistics applied to parameters including maximum plasma concentration after administration (Cmax), the time to reach maximum plasma concentration after administration (Tmax), elimination rate constant (λz), area under the plasma concentration-time curve from the time 0 to the time of last quantifiable concentration (AUC0-t, obtained by the linear trapezoidal method), area under the plasma concentration-time curve from time 0 extrapolated to infinity (AUC0-∞, AUC0-∞ = AUC0-t + Ct/λ z ), half-life (t1/2, t1/2 = ln ([…])/λz), mean residence time (MRT, MRT = AUMC/AUC), apparent clearance (CL/F, CL/F = Dose/AUC0-∞), apparent volume of distribution based on terminal phase (Vz/F, Vz/F = Dose/(λz×AUC0-∞)).

[2] = Excretion of radioactivity in urine and feces (mass balance); assay type: in vivo, human
Description: as §1
The excreta sample collection ceased when total radioactivity from excreta surpassed 80% of the administered dose, or less than 1% of the dose for two consecutive intervals. Blood sample collection ceased when the radioactivity of plasma at 2 consecutive time points was lower than 3 times the radioactivity at 0 h before administration. Based on the interim results, sample collection concluded earlier than initially planned.
as §2
Radioactivity was measured using an oxidative combustion apparatus and liquid scintillation counter (LSC). After the whole blood sample was vortexed thoroughly, two portions (about 0.5 g each) were weighed into the combustion boat, and after complete combustion by oxidative combustion apparatus, [^14C]carbon dioxide generated from the combustion of the samples was captured by scintillation solution and measured by liquid scintillation counter. After plasma samples were fully vortexed, one portion (approximately 0.5 g) was weighed into a scintillation vial, mixed well with the scintillation solution, and measured using a liquid scintillation counter. When the radioactivity of the plasma sample after administration is below the LLOQ, additional samples can be added, up to a maximum of 1 g. After mixing the urine well, weighed one portion (about 1 g) into a scintillation bottle, then added scintillation solution to mix well, and use a liquid scintillation counter to measure the radioactivity. The feces were transferred to labelled containers with known empty weights and soaked in an appropriate amount of 50% aqueous isopropanol solution for about 2–4 h or for a certain period of time (e.g., overnight) at 1°C–9°C. Before homogenization, the solution was made up to a suitable dilution by the addition of an appropriate amount of 50% aqueous isopropanol, the total weight was weighed and recorded, and the homogenization was carried out using a tissue homogenizer. Two equal portions of the homogenate (approximately 0.3 g) were weighed into a combustion boat and fully combusted by an oxidative combustion apparatus, and the [^14C]carbon dioxide generated from the combustion of the samples was captured with a scintillation solution and measured using a liquid scintillation counter.
The combustion efficiency of the oxidative combustor was verified by performing a combustion recovery test using a^14C-containing standard solution of known radioactivity concentration prior to combustion of the sample. […]

[3] = set-up: method as in Cao W. et al., 2023; conditions: 30 mg amdizalisib capsules, fed condition, Chinese healthy volunteers ref Cao W. et al., 2023; cited from earlier work
[4] = Safety and tolerability evaluation; conditions: for serious adverse events or deaths: 6 healthy Chinese males
Description: The safety of the subjects was assessed by adverse events, laboratory test results, vital signs, and 12-lead electrocardiogram (ECG). AEs were recorded from the time of administration and serious adverse events (SAE) were recorded from the time that subjects signed the informed consent. Subjects with elevated aspartate aminotransferase (AST) and/or alanine aminotransferase (ALT) levels (≥3 × ULN) combined with elevated serum total bilirubin (≥2 × ULN) or clinical jaundice in the same blood sample should be recorded as a specific adverse event.

Which CL/F [1] does the source give for C[C@H](Nc1ncnc(N)c1C#N)c1cc2ncc(Cl)n2nc1-c1ccccc1 [Amdizalisib] here?
The CL/F was 16.8 ± 4.44 L/h.

And the CL/F ([1]; listed as amdizalisib)?
The CL/F was 16.8 L/h.

And the concentration at 72 h ([1]; male, human, plasma, oral, 30 mg, below the lower quantifiable limit in 4 of 6 subjects, detectable in 2)?
The concentration at 72 h was less than 0.5 ng/mL.

And the AUC(0-inf) ([1]; male, human, plasma, po, 30 mg)?
Its AUC(0-inf) is 1880 ± 478 ng·h/mL.

And the AUC(0-t) ([1]; male, human, plasma, po, 30 mg)?
Its AUC(0-t) is 1870 ± 474 ng·h/mL.

What about the Cmax ([1]; male, human, plasma, po, 30 mg) of the same compound?
Its Cmax is 244 ± 48.9 ng/mL.

What about the half-life ([1]; male, human, plasma, po, 30 mg) of the same compound?
The half-life was 8.34 ± 2.43 h.

What about the MRT last ([1]; male, human, plasma, po, 30 mg, read-out: MRT0-t) of the same compound?
The MRT last was 9.65 ± 1.48 h.

And the Vd/F ([1]; male, human, plasma, po, 30 mg, read-out: Vz/F)?
Its Vd/F is 192 ± 28 L.

What about the “Aefeces, % of dose” value ([2]; Total (mean ± SD), 6 subjects, feces 0–144/192 h) of the same compound?
Its value is 62.08 % of dose.

And the “Aefeces, % of dose” value ([2]; Total (mean ± SD), 6 subjects, feces 0–144/192 h, listed as [^14C] Amdizalisib)?
Its value is 62.08 ± 3.00 % of dose.

And the “Aeurine, % of dose” value ([2]; Total (mean ± SD), 6 subjects, urine 0–144/192 h)?
The value was 37.15 % of dose.

And the “Aeurine, % of dose” value ([2]; Total (mean ± SD), 6 subjects, urine 0–144/192 h, listed as [^14C] Amdizalisib)?
Its value is 37.15 ± 2.84 % of dose.

What about the “Aetotal, % of dose” value ([2]; Total (mean ± SD), 6 subjects, urine and feces 0–144/192 h, listed as [^14C] Amdizalisib) of the same compound?
The value was 99.23 ± 0.30 % of dose.

What about the “Aetotal, % of dose” value ([2]; Total (mean ± SD), 6 subjects, urine and feces 0–144/192 h, listed as [^14C]amdizalisib) of the same compound?
Its value is 99.23 % of dose.

And the “time within which completely excreted” value ([2]; single oral dose of [14C]amdizalisib suspension)?
The value was no more than 168 h.

And the “Aefeces, % of dose” value ([2]; subject 1,001, feces 0–192 h)?
Its value is 58.49 % of dose.

And the “Aeurine, % of dose” value ([2]; subject 1,001, urine 0–192 h)?
The value was 40.40 % of dose.

And the “Aetotal, % of dose” value ([2]; subject 1,001, urine and feces 0–192 h)?
Its value is 98.89 % of dose.

And the “Aefeces, % of dose” value ([2]; subject 1,002, feces 0–192 h)?
Its value is 63.33 % of dose.

What about the “Aeurine, % of dose” value ([2]; subject 1,002, urine 0–192 h) of the same compound?
Its value is 35.85 % of dose.

What about the “Aetotal, % of dose” value ([2]; subject 1,002, urine and feces 0–192 h) of the same compound?
The value was 99.18 % of dose.

And the “Aefeces, % of dose” value ([2]; subject 1,003, feces 0–144 h)?
The value was 64.48 % of dose.

And the “Aeurine, % of dose” value ([2]; subject 1,003, urine 0–144 h)?
Its value is 35.12 % of dose.

And the “Aetotal, % of dose” value ([2]; subject 1,003, urine and feces 0–144 h)?
Its value is 99.60 % of dose.

And the “Aefeces, % of dose” value ([2]; subject 1,004, feces 0–144 h)?
Its value is 58.70 % of dose.

What about the “Aeurine, % of dose” value ([2]; subject 1,004, urine 0–144 h) of the same compound?
Its value is 40.65 % of dose.

What about the “Aetotal, % of dose” value ([2]; subject 1,004, urine and feces 0–144 h) of the same compound?
The value was 99.35 % of dose.

What about the “Aefeces, % of dose” value ([2]; subject 1,005, feces 0–144 h) of the same compound?
The value was 61.77 % of dose.

And the “Aeurine, % of dose” value ([2]; subject 1,005, urine 0–144 h)?
The value was 37.11 % of dose.

What about the “Aetotal, % of dose” value ([2]; subject 1,005, urine and feces 0–144 h) of the same compound?
Its value is 98.88 % of dose.

What about the “Aefeces, % of dose” value ([2]; subject 1,006, feces 0–144 h) of the same compound?
Its value is 65.73 % of dose.

And the “Aeurine, % of dose” value ([2]; subject 1,006, urine 0–144 h)?
Its value is 33.74 % of dose.

And the “Aetotal, % of dose” value ([2]; subject 1,006, urine and feces 0–144 h)?
Its value is 99.47 % of dose.

What about the “average excretion of total radioactivity within 96 h after administration” value ([2]; urine plus feces) of the same compound?
Its value is “over 94 % of the administered dose”.

And the “excretion within 96 h as share of the total excretion from 0 h to 192 h” value ([2]; urine plus feces)?
Its value is 94.74%.

What about the “average excretion of total radioactivity within 96 h after administration” value ([2]; urine plus feces, listed as [^14C]amdizalisib) of the same compound?
Its value is 94.01 % of the administered dose.

What about the “AUC0-∞” value [3] of the same compound?
The value was 1,574 h٠ng/mL.

What about the Cmax [3] of the same compound?
The Cmax was 152 ng/mL.

And the “subjects reporting TEAEs” value ([4]; 5 of 6 subjects, single oral 30 mg/100 µCi)?
Its value is 83.3%.

And the “serious adverse events or deaths” value [4]?
Its value is “No serious adverse events or drug-related deaths occured”.

And the “serious adverse events or deaths” value ([4]; listed as amdizalisib)?
The value was “No subjects reported serious adverse events or adverse events leading to death”.

And the “severity of TEAEs” value ([4]; all TEAEs, considered study drug related)?
Its value is “grade 1”.

What about the “subjects reporting diarrhea as TEAE” value ([4]; four subjects) of the same compound?
Its value is 66.7%.

And the “number of TEAEs reported” value ([4]; throughout the study, 6 subjects)?
Its value is 11.

What about the “subjects reporting abnormal laboratory test results” value ([4]; two subjects, shortened ECG PR, elevated low-density lipoprotein, positive urine white blood cells) of the same compound?
Its value is 33.3%.
